Results from PMC5688144, “Assay interference and off-target liabilities of reported histone acetyltransferase inhibitors” (Nature Communications, 2017).

Key:
human La antigen = biological target: T1, human La antigen (Homo sapiens, UniProt P05455, T302N); assay: ALARM NMR; type: binding; settings: 400 μM compound; for ALARM NMR, (-) DTT: 0 mM DTT; for ALARM NMR, (+) DTT: DTT present; for ALARM NMR interpretation: with and without DTT
T1 construct: amino acids 100–324 of the human La antigen (plus T302N mutation); 6xHis (N); 6xHis (C); host or cells: Escherichia coli Rosetta cells
T1 sequence (P05455 100-324 T302N): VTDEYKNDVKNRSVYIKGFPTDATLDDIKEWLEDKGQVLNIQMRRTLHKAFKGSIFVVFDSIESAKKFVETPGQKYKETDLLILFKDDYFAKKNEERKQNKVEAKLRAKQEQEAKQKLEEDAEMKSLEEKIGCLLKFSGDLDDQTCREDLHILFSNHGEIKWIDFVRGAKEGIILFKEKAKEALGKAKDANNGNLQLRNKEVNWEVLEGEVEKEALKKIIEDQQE
In short: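 Construct is La residues 100–324, His-tagged, with Ile/Val methyls 13C-labelled, pre-reduced with DTT and then dialysed. Protein (50 μM) was incubated with 400 μM compound ± 20 mM DTT in 25 mM sodium phosphate pH 7.0, 4% DMSO, for 1 h at 37 °C then 15 h at 30 °C. [1H-13C]-HMQC was recorded at 298 K, and shift or intensity changes were scored against DMSO controls.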

[1] = UPLC-MS gross compound stability in assay buffer; settings: 25 mM sodium phosphate, pH 7.0, 30 °C, no GSH or CoA
Description: Select compounds were incubated up to 24 h for additional stability analyses. Chromatograms and mass spectra were qualitatively analyzed for the formation of new peaks and/or loss of parent peaks.

[2] = Fluorescence quenching counter-screen; type: physicochemical; settings: 10 μM fluorophore; 32 nM-100 μM compound
Description: Selected test compounds were assessed for fluorescence quenching using adaptions of previously published procedures[9],[24]. Briefly, test compounds and individual fluorophore standards were incubated together. The fluorescence intensity of these mixtures was compared to the fluorescence intensity of the same fluorophore standards minus test compounds. Each microplate contained positive control columns (DMSO plus fixed concentration of a single fluorophore), negative control columns (DMSO), and experimental wells (test compounds plus fixed concentration of a single fluorophore). […] Final concentration of DMSO was constant at 2.0% (v/v). […] All measurements were performed in ALARM NMR buffer (25 mM sodium phosphate, pH 7.0) at 25 °C. Aliquots of 20 μL buffer were dispensed into microplate wells via ThermoFisher Multidrop dispenser. Microplates were shaken for 1 min on a plate shaker, centrifuged briefly for 1 min at 1000×g, then allowed to incubate at RT for 10 min before measuring fluorescence intensity on a SpectraMax M3 plate reader under reduced lighting. Instrument settings for each fluorophore were unchanged from the aforementioned autofluorescence studies.

[3] = Autofluorescence counter-screen; type: physicochemical; settings: autofluorescence at eight fluorophore settings; 32 nM-100 μM compound
Description: Selected test compounds were assessed for autofluorescence using an adaption of published procedures. […] Final concentration of DMSO was constant at 1.0% (v/v). Compounds and fluorophore standards were transferred as 10 mM DMSO stock solutions to 384-well black polystyrene microplates via Echo 550 dispenser. The plate arrangement was purposefully designed to minimize optical crosstalk by fluorophore standards. All measurements were performed in ALARM NMR buffer (25 mM sodium phosphate, pH 7.0) at 25 °C. Aliquots of 20 μL buffer were dispensed into microplate wells via ThermoFisher Multidrop dispenser. Compounds were shaken for 1 min on a plate shaker, centrifuged briefly for 1 min at 1000×g, then allowed to incubate at RT in buffer for 10 min before measuring fluorescence intensity on a SpectraMax M3 plate reader under reduced lighting. […] Bandwidth filters were set to default mode. Fluorescence intensity was measured for each test compound using each of the eight fluorophore standard settings. Fluorophores present on each plate were then used to construct normalized fluorescence dose-responses (“fluorophore-equivalent concentrations”, FEC). Fluorescence intensity for each test compound was converted to the appropriate FEC.

Molecule | ALARM NMR, (-) DTT (human La antigen) | ALARM NMR, (+) DTT (human La antigen) | ALARM NMR interpretation (human La antigen) | UPLC-MS buffer stability counter-screen [1] | Quenching counter-screen [2] | Fluorescence counter-screen [3] | ALARM NMR readout (human La antigen; overall readout)
CCCCCCCCCCCC1=C(O)C(=O)C=C(O)C1=O [Compound 9, Embelin] | Positive | Positive | Thiol-reactive, nonspecific perturbation | Grossly stable | Flagged (Significant fluorescence quenching was defined as signal reduction greater than 25% of the corresponding fluorophore signal at any test compound concentration) | Negative | 
O=C(O[C@@H]1Cc2c(O)cc(O)cc2O[C@@H]1c1cc(O)c(O)c(O)c1)c1cc(O)c(O)c(O)c1 [Compound 10, (-)-Epigallocatechin gallate] | Positive | Negative | Thiol-reactive | Gross degradation observed; loss of parent peak, appearance of new peaks | Flagged (Significant fluorescence quenching was defined as signal reduction greater than 25% of the corresponding fluorophore signal at any test compound concentration) | Negative | 
COc1cc(/C=C/C(=O)CC(=O)/C=C/c2ccc(O)c(OC)c2)ccc1O [Compound 11, Curcumin] | Partial | Negative | Equivocal | Gross degradation observed; loss of parent peak, appearance of new peaks | Flagged (Significant fluorescence quenching was defined as signal reduction greater than 25% of the corresponding fluorophore signal at any test compound concentration) | Negative | 
O=C1/C(=C/c2ccc(O)c(Br)c2)CCC/C1=C\c1ccc(O)c(Br)c1 [Compound 12, HAT inhibitor II] | Partial | Negative | Equivocal | Gross degradation observed; loss of parent peak | Flagged (Significant fluorescence quenching was defined as signal reduction greater than 25% of the corresponding fluorophore signal at any test compound concentration) | Negative | 
COc1ccc(/C(Cl)=C(/C=O)c2ccc(OC)cc2)cc1 [Compound 18, Windorphen] | Negative | Negative | Inert as tested | Grossly stable | Flagged (Significant fluorescence quenching was defined as signal reduction greater than 25% of the corresponding fluorophore signal at any test compound concentration) | Negative | negative
CCCC1(c2ccccc2)NC(=O)N(CC(=O)N(C)Cc2c(F)cccc2Cl)C1=O (stereo not shown) [Compound 21, N-[(2-chloro-6-fluorophenyl)methyl]-2-(2,5-dioxo-4-phenyl-4-propylimidazolidin-1-yl)-N-methylacetamide] | Negative | Negative | Inert as tested | Grossly stable | Flagged (Significant fluorescence quenching was defined as signal reduction greater than 25% of the corresponding fluorophore signal at any test compound concentration) | Negative | 
Plumbagin [Compound 8] | Positive | Negative | Thiol-reactive | Grossly stable | Negative | Negative | 
